Assay results as given in patent US12570697B2, “Cyclic peptide useful in the treatment of cancer” (Syntherix Limited, priority 2019, dated 2026).
Ends that are not written are not given here.

Experiments:
[1] = system: NCI-H460 cells; assay: NCI-H460 cell viability assay, glycosylated versus unglycosylated peptide (Example 4); type: cell-based, human; settings: 0.2 μl Nanocin-Pro per well
Method: The inventor next undertook testing to determine whether the cytotoxicity of the peptides of the invention could be increased by glycosylation of the peptides. NCI-H460 cell viability assays were performed to compare the effect of a glycosylated clipped peptide (HILRa-Glu-01) versus the un-glycosylated version (HILRa-CL-17, HILRa-CL-17 was used in this study as a 1:1:1 mix of the three isomers HILRa-CL-17A, HILRa-CL-17B and HILRa-CL-17C).
Assays were performed in the presence and absence of the peptide transfection agent Nanocin-Pro.
The following protocol was used: • 1) NCI-H460 cells were grown in Ham's F12 media supplemented with 10% FBS. • 2) Cells were harvested and seeded into 96-well plates at 500 cells per well. • 3) HILRa peptides were diluted 1:2 from DMSO stock solutions to generate a 9-point dose range from a top concentration of 300 μM. […] Nanocin-Pro was used at a final assay concentration of 0.2 μl per well. • 5) Cells were grown in the presence of peptide for 96 hours at 37° C., 5% CO2 in a humidified atmosphere. • 6) After 96 h, Alamar blue 10% (v/v) was added, incubated for a further 4 h and fluorescent product detected using a BMG FLUOstar plate reader. • 7) Media only background readings were subtracted before data was analysed using a 4-parameter logistic equation in GraphPad Prism.

[2] = system: NCI-H460 cells; assay: viability assay of CLIP cyclised peptides on NCI-H460 cells (Example 3, Table 2); type: cell-based, human; settings: with and without Nanocin-PRO
Method: The following protocol was used: • 1) NCI-H460 cells were grown in Ham's F12 media supplemented with 10% FBS. • 2) Cells were harvested and seeded into 96-well plates at 500 cells per well. • 3) Peptides were diluted 1:2 from DMSO stock solutions to generate a 9-point dose range from a top concentration of 300 μM. Final DMSO concentration was constant at 1% (v/v). • 4) In line with the supplied Nanocin-PRO protocol, diluted peptides were incubated with Nanocin-PRO in media for 20 minutes prior to addition to cells. Nanocin-PRO was used at a final assay concentration of 0.2 μl per well. • 5) Cells were grown in the presence of peptide for 96 hours at 37° C., 5% CO2 in a humidified atmosphere. • 6) After 96 h, Alamar blue 10% (v/v) was added, incubated for a further 4 h and fluorescent product detected using a BMG FLUOstar plate reader. • 7) Media only background readings were subtracted before data was analysed using a 4-parameter logistic equation in GraphPad Prism.
Viability assays of the CLIP cyclised peptides were performed to examine the effect of four HILRa clipped peptides on the viability of NCIH460 cells (up to three isomers for each of the peptides). […] Results for HILRa 16A, 16B, 16C and HILRa 17A, 17B and 17C are depicted in FIG. 2.
Assays were performed in the presence and absence of the peptide transfection reagent Nanocin-PRO.

[3] = system: RT112 bladder cancer cell line; settings: WO 2016/020437; cited from earlier work
[4] = system: MRC-5 cells; settings: in vitro; WO 2016/020437; cited from earlier work

Row | Substance | activity in the presence of Nanocin-PRO compared to its absence [1] | cytotoxic activity against NCIH460 cells (in words) [2] | cytotoxic activity against NCIH460 cells (in words) ([2]; listed as HILRa-CL17) | IC50 [3] | lethality in MRC-5 cells [4]
1 | Ac-C[Dac]R[Sar][Nap]R[Nap]C-NH2 [HILRa-CL-17] | much higher activity | greater potency than HILRa-CL-15 | showed activity |  | 
2 | PRGPRPVWWRRWWRRWW [HILR-PRO-25] |  |  |  | 10 µM | without lethality
